The values below come from US20050106249A1 (priority 2002, published 2005).

The test system of series [1] is healthy male subjects. The series can be described thus: Example 5 cold pain test. Particulars: 10 mg IV infusion over 15 min.
In series [2] the test system is healthy male subjects. The series can be described thus: Example 5 pupil size. It is filed as in vivo, human. The following applies: IV morphine 10 mg; Example 2 SZO-24 dosage form 2×20 mg.
The conditions of series [3]: analyte in plasma after 40 mg (oxycodone HCl) SZO-24 dosage form.
Series [4] relates to Male Sprague-Dawley (SD) rats. The series can be described thus: Example 8 rat tolerance study, tail-flick assay. Particulars: for Tail flick results: mean ± SD.
Description: The biphasic dosing regimen used subcutaneous (SC) infusion, and the SZO regimen used subcutaneously-implanted ALZET® osmotic pumps. The vehicle control for the study was 0.9% saline.
The rodent tail-flick assay was used to assess analgesia (antinociception). […] In the assay, rodents are briefly restrained and radiant heat is applied to the tip of the tail. The time it takes for the animal to flick its tail is recorded; a delay in this response compared to pre-dose readings is indicative of antinociception.
An IITC Model 33 Tail Flick Analgesia Meter was used to apply heat to the animal's tail (IITC Life Science, Woodland Hills, Calif.). […] (this temperature allows pre-warming of the animal's tail to allow for more uniform measurements from day-to-day and test-to-test); • (3) Cutoff Time: 10 seconds (i.e., the length of time from the start of the test until the unit automatically ends the test to prevent tissue damage).
The animals were briefly restrained in plexiglass restrainers and radiant heat was applied to the tip of the animal's tail (approximately 1-2 cm from the tip). After the temperature reached 30° C., the meter increased the light intensity providing a noxious stimulus to the animal's tail. The time in seconds for the animal to flick its tail was recorded for each animal.
Tail flick latency values were converted to a percentage of the maximum possible effect (%MPE) using the following formula: %MPE=100×(ΔL/ΔLmax) where: ΔL=Post-dose Latency−Pre-dose Latency, and ΔLmax=Cutoff Time−Pre-dose Latency.
For the biphasic dosing regimen, the animals were subcutaneously infused using a computer-controlled Harvard syringe pump. […] The animals had catheters implanted subcutaneously with approximately 7 cm of PE 10 tubing. The tubing was secured with sutures and sterile surgical skin glue to prevent accidental removal of the catheter.
For the SZO dosing regimen, ALZET® osmotic pumps (Model 2ML1) were implanted subcutaneously in the animals. […] For the SZO dosing, the rats were not tethered.
Male Sprague-Dawley (SD) rats obtained from Charles River (Hollister, Calif.) and weighing at least 200g were used in the experiments. Extra animals were employed in the biphasic dosing regimen to take account of damaged catheters, but only enough animals were dosed on Day +3 to replace the animals with damaged catheters.
Intuitively, the difference between the effect of the same test on Day +3 and Day −1 should be a direct measure of tolerance. The data collected from rats tested for responses at 0, 0.25, 0.5, 0.75, and 1 mg/kg were thus used to perform the statistical analysis.
The data (difference between Day +3 and Day −1) were analyzed by the analysis of variance (ANOVA) method. The full variance model consisted of the three primary factors, their first-order interaction terms and their second order interaction term, namely: • dosing regimen, • 3-day treatment, • tail flick testing dose, • dosing regimen×3-day treatment, • dosing regimen×tail flick testing dose, • 3-day treatment×tail flick testing dose, and • dosing regiment×3-day treatment x tail flick testing dose.
The conditions of series [5]: human plasma; orally administered immediate release oxycodone; cited from earlier work.
For series [6] the following is noted: cited from earlier work.

On to `CN1CC[C@]23c4c5ccc(O)c4O[C@H]2[C@@H](O)C=C[C@H]3[C@H]1C5` [IV morphine, morphine], for which the “separation from placebo in the cold pain test” value in the series on healthy male subjects [1] is recorded as “did not statistically separate from placebo”. For the same compound, the pupil size changes result in the series on healthy male subjects [2] is “consistent with their respective pharmacokinetic profiles”.
With `COc1ccc2c3c1O[C@H]1C(=O)CC[C@@]4(O)[C@@H](C2)NCC[C@]314` [Noroxycodone], in series [3], the “AUCinf, single dose” value was determined as 421.2 ng·h/mL and the “Cmax, single-dose plasma concentration” value came to 13.12 ng/mL.
With `COc1ccc2c3c1OC1C(=O)CC[C@@]4(O)[C@@H](C2)N(C)CC[C@]314` (stereo partly shown) [oxycodone, 4,5-epoxy-14-hydroxy-3-methoxy-17-methylmorphinan-6-one], the Tail flick results in series [4] (Biphasic dosing (SC infusion, syringe pump, 10 mg/(kg · d)), 3-day treatment oxycodone, testing dose 0 mg/kg, Day +3, n = 7) turned out to be 1.55 ± 4.70 % MPE; in series [4] (Biphasic dosing (SC infusion, syringe pump, 10 mg/(kg · d)), 3-day treatment oxycodone, testing dose 0.25 mg/kg SC, Day +3, n = 8), 0.48 ± 2.28 % MPE; in series [4] (Biphasic dosing (SC infusion, syringe pump, 10 mg/(kg · d)), 3-day treatment oxycodone, testing dose 0.25 mg/kg SC, Day −1, n = 8) it was 4.75 ± 6.80 % MPE; in series [4] (Biphasic dosing (SC infusion, syringe pump, 10 mg/(kg · d)), 3-day treatment oxycodone, testing dose 0.5 mg/kg SC, Day +3, n = 8), 10.64 ± 7.72 % MPE; in series [4] (Biphasic dosing (SC infusion, syringe pump, 10 mg/(kg · d)), 3-day treatment oxycodone, testing dose 0.5 mg/kg SC, Day −1, n = 8) it was 34.19 ± 28.28 % MPE; in series [4] (Biphasic dosing (SC infusion, syringe pump, 10 mg/(kg · d)), 3-day treatment oxycodone, testing dose 0.75 mg/kg SC, Day −1, n = 8), 49.32 ± 32.89 % MPE. Further, the Tail flick results in series [4] (Biphasic dosing (SC infusion, syringe pump, 10 mg/(kg · d)), 3-day treatment oxycodone, testing dose 1 mg/kg SC, Day +3, n = 8) turned out to be 30.73 ± 19.05 % MPE; in series [4] (Biphasic dosing (SC infusion, syringe pump, 10 mg/(kg · d)), 3-day treatment oxycodone, testing dose 1 mg/kg SC, Day −1, n = 8), 84.61 ± 27.43 % MPE; in series [4] (Biphasic dosing (SC infusion, syringe pump, 10 mg/(kg · d)), 3-day treatment oxycodone, testing dose 1.5 mg/kg SC, Day −1, n = 8) it was 100.00 ± 0.00 % MPE; in series [4] (Biphasic dosing (SC infusion, syringe pump, 10 mg/(kg · d)), 3-day treatment oxycodone, testing dose 3.0 mg/kg SC, Day +3, n = 8) it was 84.81 ± 26.06 % MPE; in series [4] (Biphasic dosing group, 3-day treatment saline, testing dose 0.25 mg/kg SC, Day +3, n = 8), 9.25 ± 12.00 % MPE; in series [4] (Biphasic dosing group, 3-day treatment saline, testing dose 0.25 mg/kg SC, Day −1, n = 8), 13.82 ± 7.87 % MPE. Also, the Tail flick results is 15.22 ± 12.44 % MPE in series [4] (Biphasic dosing group, 3-day treatment saline, testing dose 0.5 mg/kg SC, Day +3, n = 8); 26.59 ± 22.79 % MPE in series [4] (Biphasic dosing group, 3-day treatment saline, testing dose 0.5 mg/kg SC, Day −1, n = 8); 48.59 ± 39.89 % MPE in series [4] (Biphasic dosing group, 3-day treatment saline, testing dose 0.75 mg/kg SC, Day +3, n = 8); 73.56 ± 28.57 % MPE in series [4] (Biphasic dosing group, 3-day treatment saline, testing dose 0.75 mg/kg SC, Day −1, n = 8); 46.00 ± 18.96 % MPE in series [4] (Biphasic dosing group, 3-day treatment saline, testing dose 1 mg/kg SC, Day +3, n = 7); 89.52 ± 20.25 % MPE in series [4] (Biphasic dosing group, 3-day treatment saline, testing dose 1 mg/kg SC, Day −1, n = 7). Moreover, the Tail flick results in series [4] (Biphasic dosing group, 3-day treatment saline, testing dose 1.5 mg/kg SC, Day −1, n = 8) is on record as 92.48 ± 16.05 % MPE; in series [4] (Biphasic dosing group, 3-day treatment saline, testing dose 3.0 mg/kg SC, Day +3, n = 8), 92.97 ± 15.65 % MPE; in series [4] (SZO dosing (SC ALZET, 10 mg/(kg · d)), 3-day treatment oxycodone, testing dose 0 mg/kg, Day +3, n = 8), −4.75 ± 8.51 % MPE; in series [4] (SZO dosing (SC ALZET, 10 mg/(kg · d)), 3-day treatment oxycodone, testing dose 0.25 mg/kg SC, Day +3, n = 8) it was −2.07 ± 4.18 % MPE; in series [4] (SZO dosing (SC ALZET, 10 mg/(kg · d)), 3-day treatment oxycodone, testing dose 0.25 mg/kg SC, Day −1, n = 8), 14.72 ± 16.16 % MPE; in series [4] (SZO dosing (SC ALZET, 10 mg/(kg · d)), 3-day treatment oxycodone, testing dose 0.5 mg/kg SC, Day +3, n = 8), 8.48 ± 17.38 % MPE. The Tail flick results was determined as 33.12 ± 19.58 % MPE in series [4] (SZO dosing (SC ALZET, 10 mg/(kg · d)), 3-day treatment oxycodone, testing dose 0.5 mg/kg SC, Day −1, n = 8); 7.90 ± 11.36 % MPE in series [4] (SZO dosing (SC ALZET, 10 mg/(kg · d)), 3-day treatment oxycodone, testing dose 0.75 mg/kg SC, Day +3, n = 8); 60.76 ± 31.45 % MPE in series [4] (SZO dosing (SC ALZET, 10 mg/(kg · d)), 3-day treatment oxycodone, testing dose 0.75 mg/kg SC, Day −1, n = 8); 23.75 ± 25.96 % MPE in series [4] (SZO dosing (SC ALZET, 10 mg/(kg · d)), 3-day treatment oxycodone, testing dose 1 mg/kg SC, Day +3, n = 8); 80.15 ± 36.76 % MPE in series [4] (SZO dosing (SC ALZET, 10 mg/(kg · d)), 3-day treatment oxycodone, testing dose 1 mg/kg SC, Day −1, n = 8); 91.44 ± 24.22 % MPE in series [4] (SZO dosing (SC ALZET, 10 mg/(kg · d)), 3-day treatment oxycodone, testing dose 1.5 mg/kg SC, Day −1, n = 8). The Tail flick results in series [4] (SZO dosing (SC ALZET, 10 mg/(kg · d)), 3-day treatment oxycodone, testing dose 3.0 mg/kg SC, Day +3, n = 8) was determined as 94.35 ± 11.48 % MPE; in series [4] (SZO dosing group, 3-day treatment saline, testing dose 0.25 mg/kg SC, Day +3, n = 8), 7.44 ± 11.94 % MPE; in series [4] (SZO dosing group, 3-day treatment saline, testing dose 0.25 mg/kg SC, Day −1, n = 8) it was 13.69 ± 8.94 % MPE; in series [4] (SZO dosing group, 3-day treatment saline, testing dose 0.5 mg/kg SC, Day +3, n = 8), 8.92 ± 11.30 % MPE; in series [4] (SZO dosing group, 3-day treatment saline, testing dose 0.5 mg/kg SC, Day −1, n = 8), 21.86 ± 13.71 % MPE; in series [4] (SZO dosing group, 3-day treatment saline, testing dose 0.75 mg/kg SC, Day +3, n = 8) it was 51.09 ± 46.28 % MPE. For the same compound, the Tail flick results in series [4] (SZO dosing group, 3-day treatment saline, testing dose 0.75 mg/kg SC, Day −1, n = 8) is 65.33 ± 32.06 % MPE; in series [4] (SZO dosing group, 3-day treatment saline, testing dose 1 mg/kg SC, Day +3, n = 8), 35.55 ± 27.94 % MPE; in series [4] (SZO dosing group, 3-day treatment saline, testing dose 1 mg/kg SC, Day −1, n = 8), 90.33 ± 19.58 % MPE; in series [4] (SZO dosing group, 3-day treatment saline, testing dose 1.5 mg/kg SC, Day −1, n = 8) it was 100.00 ± 0.00 % MPE; in series [4] (SZO dosing group, 3-day treatment saline, testing dose 3.0 mg/kg SC, Day +3, n = 8) it was 100.00 ± 0.00 % MPE. Besides, the “tolerance, SZO dosing regimen versus biphasic dosing regimen” value in series [4] (full ANOVA model, 158 rats) is “not statistically significantly different”. In series [4] (full ANOVA model, p=0.0039), the “tolerance, rats treated with oxycodone for 3 days versus saline” value is on record as “statistically different”. In addition, in series [4] (reduced ANOVA model, not statistically different at α 0.05), the “estimated mean tolerance difference between the SZO dosing regimen and the biphasic dosing regimen” value is reported as −3.2 %MPE. In series [4] (reduced ANOVA model, p=0.0035, testing doses 0-1 mg/kg), the “estimated mean tolerance difference (Day +3 minus Day −1) between the oxycodone and saline treated rats” value is −10.7 %MPE. For the same compound, the half-life result in series [5] is on record as “about 3.2 hours”. Further, the “onset of action, analgesia occurring” value in series [6] (orally administered) was no more than 30 min. Further, the “analgesic action apparent (onset)” value in series [6] (parenterally administered) was no more than 15 min.
